# Data as given in US9696323B2, “Biomarkers for chagas disease related cardiomyopathy” (THE BOARD OF REGENTS OF THE UNIVERSITY OF TEXAS SYSTEM, priority 2013, dated 2017).
# Assays:
# [1] = tested on: T. cruzi; assay: Oxidative modification (carbonylation) of plasma proteins in chagasic rats treated with PBN and/or BZ; assay type: in vivo, rat; details: chagasic rat plasma; 5 of 11 carbonylated proteins (CFB, CFH, SERPRINA1, SERPINC1, PLG)
# Description: Certain embodiments include biomarkers identified in a previous study. Parasite persistence and oxidative damage in the heart are known to be of pathological significance during Chagas disease (Zacks et al., (2005) An Acad Bras Cienc, 77, 695-715; Gupta et al., (2009) Interdiscip Perspect Infect Dis, 2009, 190354). […] In the previous study the inventors identified 92 proteins that were differentially expressed or oxidized in chagasic plasma. Functional analysis allocated a majority of these proteins to inflammation/immunity and lipid metabolism categories, and to molecular pathways associated with cardiovascular dysfunction, e.g., myocardial infarction, hypertrophy, and fibrosis, and pulmonary embolism and hypertension. Some proteins in chagasic rats treated with PBN and/or BZ were allocated to curative pathways (immune regulation and cardiac remodeling). The 2D-GE results were validated by Western blotting. […] Increased plasma levels of GSN, MYL2, and VIM were directly correlated with the severity of cardiac disease in human chagasic patients. […] These findings have utility in diagnosing disease severity and designing suitable therapy for management of human chagasic patients. […]
# [2] = tested on: T. cruzi; details: infected rats; BZ parasite-induced, PBN oxidative stress-induced (Wen et al. 2006, 2010); cited from earlier work
smiles,measurement,setting,value
CC(C)(C)/[N+]([O-])=C/c1ccccc1 [PBN],oxidative modification of inflammation-associated plasma proteins,[1],prevented the oxidative modification of five of these proteins
same,controlling parasite- and oxidative stress-induced pathology,[2],beneficial effects
